Assay results reported in patent US12358870B2, “Solid dispersions and pharmaceutical compositions comprising a substituted indane and methods for the preparation and use thereof” (Peloton Therapeutics Inc., priority 2018, dated 2025).

Assays:
[1] = Glass transition temperature (Tg) by mDSC; assay type: physicochemical; conditions: neat compound, Example 1
Procedure: MDSC was performed using a TA Instruments Q2000 differential scanning calorimeter equipped with a TA instruments Refrigerated Cooling System 90. MDSC was used to measure glass transition temperature (Tg) and melting temperature (Tm), if present. The temperature range was adjusted from 0-250° C. with a heating rate of 1.5° C./min. The scanning mode was modulated where the modulation frequency was 60 seconds and modulation amplitude 1° C.
The effect of relative humidity on the Tg was examined for the solid dispersion. The solid dispersion was exposed to humidity levels of 33%, 50% or 75% for 24 hours. Following exposure, the samples were capped in hermetically sealed DSC pans for analysis. […] As shown, the Tg dropped to 71° C. and 51° C. when exposed to 33% and 75% RH, respectively. […] The solid dispersion was packaged in packaging that maintains RH values <33% for long-term storage.

[2] = Solubility and sink factor in dissolution media at pH 2 and 6.8; conditions: for Sink Factor (10 mg) / Sink Factor (40 mg): 900 mL media
[3] = Suspension stability monitored by SGF/FaSSIF dissolution test; assay type: physicochemical
Procedure: The performance of each solid dispersion suspension was monitored at 4 and 24 hours after preparation using the SGF/FaSSIF dissolution test as the comparative metric.
The suspension stability dissolution profiles for the solid dispersion formulations held for 4 hours or 24 hours can be found in Tables 8 and 9, respectively. The dissolution tests were dosed at 2.0 mgA/mL in SGF and upon transfer into FaSSIF were reduced to 1.0 mgA/mL. It is expected that the solid dispersion suspensions can be held for up to 4 hours prior to dosing.

[4] = Solubility in acetone and acetone/H2O mixtures, 30 minutes; conditions: room temperature
Procedure: The first measurement was conducted at room temperature over 30 minutes with mixing completed by spinning in centrifuge tubes.

[5] = Non-sink gastric transfer dissolution test (SGF to FaSSIF); assay type: physicochemical
Procedure: The dissolution performance of the solid dispersions was tested in a non-sink dissolution test. […] During the test, samples were transferred from SGF [theoretical Cmax=2000 μgA/mL] to FaSSIF [theoretical Cmax=1000 μgA/mL].

[6] = test system: VEGF; assay: VEGF ELISA Assay in 786-O cells; assay type: cell-based; conditions: Homo sapiens, 786-0; VEGF concentration in 786-O cell culture medium
Procedure: Each concentration was plated in duplicate. About 20 hours later, medium was removed by suction and each well was supplied with 180 μL of growth medium. About 20 μl freshly-made 10× compound stocks were added to each well. […] The EC50 was calculated by GraphPad Prism using the dose-response-inhibition (four parameter) equation. The cell-seeded plate was then subjected to CellTiter-Glo luminescence cell viability assay (Promega) by adding 50 μL of Celltiter Glo reagent into each well and shaking the plate for 8 minutes at 550 rpm (Thermomixer R, Eppendorf) then the luminescence signal immediately read in a plate reader (3 second delay, 0.5 second/well integration time, Synergy 2 multi Detection Microplate reader).

[7] = Solubility in acetone/H2O combinations, equilibrated 48 hours; assay type: physicochemical; conditions: 48 hours at room temperature
Text: The second measurement was completed to further evaluate acetone/H2O combinations in 1% H2O increments.

[8] = test system: 786-O-Hif-Luc cells; assay: Luciferase Assay; assay type: cell-based; conditions: luciferase activity after about 24 hours
Procedure: A pool of infected cells were then selected against 2 μg/mL of puromycin (P8833, Sigma) for 10 days followed by limited dilution to select single clones.
Each concentration was tested in triplicate. After about 24 hours, luciferase activity was determined using ONE-Glo Luciferase Assay Reagent (E6110, Promega) following the manufacturer's recommended procedure.

[9] = pH 2.0 (0.01N HCl) w/0.5% Tween 80
[10] = pH 2.0 (0.01N HCl) w/1% Tween 80
[11] = pH 6.8 (50 mM NaH2PO4) w/0.5% CTAB
[12] = pH 6.8 (50 mM NaH2PO4) w/0.5% SLS
[13] = pH 6.8 (50 mM NaH2PO4) w/0.5% Tween 80
[14] = pH 6.8 (50 mM NaH2PO4) w/1% CTAB
[15] = pH 6.8 (50 mM NaH2PO4) w/1% SLS
[16] = pH 6.8 (50 mM NaH2PO4) w/1% Tween 80
[17] = Example 6, lipid vehicle capsules

Question: With `CS(=O)(=O)c1ccc(Oc2cc(F)cc(C#N)c2)c2c1[C@H](O)[C@H](F)[C@@H]2F` [compound of Formula (I), 3-(((1S,2S,3R)-2,3-difluoro-1-hydroxy-7-(methylsulfonyl)-2,3-dihydro-1H-inden-4-yl)oxy)-5-fluorobenzonitrile] as the compound, how does the “glass transition temperature (Tg)” value [1] read?
Answer: 79.9 °C

Question: What about the solubility ([2]; pH 2) of the same compound?
Answer: 100 µg/mL

Question: What about the “Sink Factor (10 mg)” value ([2]; pH 2.0 (0.01N HCl) w/0.5% CTAB) of the same compound?
Answer: 5.4

Question: And the “Sink Factor (40 mg)” value ([2]; pH 2.0 (0.01N HCl) w/0.5% CTAB)?
Answer: 1.4

Question: What about the “Sink Factor (10 mg)” value ([2]; pH 2.0 (0.01N HCl) w/0.5% SLS) of the same compound?
Answer: 3.6

Question: What about the “Sink Factor (40 mg)” value ([2]; pH 2.0 (0.01N HCl) w/0.5% SLS) of the same compound?
Answer: 0.9

Question: What about the “Sink Factor (10 mg)” value [2, 9] of the same compound?
Answer: 1.8

Question: And the “Sink Factor (40 mg)” value [2, 9]?
Answer: 0.5

Question: And the “Sink Factor (10 mg)” value ([2]; pH 2.0 (0.01N HCl) w/1% CTAB)?
Answer: 9

Question: What about the “Sink Factor (40 mg)” value ([2]; pH 2.0 (0.01N HCl) w/1% CTAB) of the same compound?
Answer: 2.3

Question: What about the “Sink Factor (10 mg)” value ([2]; pH 2.0 (0.01N HCl) w/1% SLS) of the same compound?
Answer: 6.3

Question: What about the “Sink Factor (40 mg)” value ([2]; pH 2.0 (0.01N HCl) w/1% SLS) of the same compound?
Answer: 1.6

Question: And the “Sink Factor (10 mg)” value [2, 10]?
Answer: 1.8

Question: What about the “Sink Factor (40 mg)” value [2, 10] of the same compound?
Answer: 0.5

Question: What about the “Sink Factor (10 mg)” value ([2]; pH 2.0 (0.01N HCl)) of the same compound?
Answer: 0.9

Question: What about the “Sink Factor (40 mg)” value ([2]; pH 2.0 (0.01N HCl)) of the same compound?
Answer: 0.2

Question: What about the solubility ([2]; pH 2, aqueous with cosolvent or surfactant or cyclodextrin, thermodynamic from solid, Solubility) of the same compound?
Answer: 60 µg/mL

Question: What about the solubility ([2]; pH 2, aqueous with cosolvent or surfactant or cyclodextrin, thermodynamic from solid, Solubility, pH 2.0 (0.01N HCl) w/0.5% SLS) of the same compound?
Answer: 40 µg/mL

Question: What about the solubility ([2]; pH 2, aqueous with cosolvent or surfactant or cyclodextrin, thermodynamic from solid, Solubility, pH 2.0 (0.01N HCl) w/0.5% Tween 80) of the same compound?
Answer: 20 µg/mL

Question: What about the solubility ([2]; pH 2, aqueous with cosolvent or surfactant or cyclodextrin, thermodynamic from solid, Solubility, pH 2.0 (0.01N HCl) w/1% SLS) of the same compound?
Answer: 70 µg/mL

Question: What about the solubility ([2]; pH 2, aqueous with cosolvent or surfactant or cyclodextrin, thermodynamic from solid, Solubility, pH 2.0 (0.01N HCl) w/1% Tween 80) of the same compound?
Answer: 20 µg/mL

Question: What about the solubility ([2]; pH 2, simulated gastric fluid, thermodynamic from solid, Solubility, pH 2.0 (0.01N HCl)) of the same compound?
Answer: 10 µg/mL

Question: And the “Sink Factor (10 mg)” value [2, 11]?
Answer: 6.3

Question: What about the “Sink Factor (40 mg)” value [2, 11] of the same compound?
Answer: 1.6

Question: What about the “Sink Factor (10 mg)” value [2, 12] of the same compound?
Answer: 3.6

Question: What about the “Sink Factor (40 mg)” value [2, 12] of the same compound?
Answer: 0.9

Question: And the “Sink Factor (10 mg)” value [2, 13]?
Answer: 1.8

Question: What about the “Sink Factor (40 mg)” value [2, 13] of the same compound?
Answer: 0.5

Question: What about the “Sink Factor (10 mg)” value [2, 14] of the same compound?
Answer: 9.9

Question: What about the “Sink Factor (40 mg)” value [2, 14] of the same compound?
Answer: 2.5

Question: What about the “Sink Factor (10 mg)” value [2, 15] of the same compound?
Answer: 6.3

Question: And the “Sink Factor (40 mg)” value [2, 15]?
Answer: 1.6

Question: What about the “Sink Factor (10 mg)” value [2, 16] of the same compound?
Answer: 1.8

Question: What about the “Sink Factor (40 mg)” value [2, 16] of the same compound?
Answer: 0.5

Question: And the “Sink Factor (10 mg)” value ([2]; pH 6.8 (50 mM NaH2PO4))?
Answer: 0.9

Question: What about the “Sink Factor (40 mg)” value ([2]; pH 6.8 (50 mM NaH2PO4)) of the same compound?
Answer: 0.2

Question: What about the solubility ([2]; pH 6.8, aqueous buffer, thermodynamic from solid, Solubility, pH 6.8 (50 mM NaH2PO4)) of the same compound?
Answer: 10 µg/mL

Question: What about the solubility ([2]; pH 6.8, aqueous with cosolvent or surfactant or cyclodextrin, thermodynamic from solid, Solubility, pH 6.8 (50 mM NaH2PO4) w/0.5% CTAB) of the same compound?
Answer: 70 µg/mL

Question: And the solubility ([2]; pH 6.8, aqueous with cosolvent or surfactant or cyclodextrin, thermodynamic from solid, Solubility, pH 6.8 (50 mM NaH2PO4) w/0.5% SLS)?
Answer: 40 µg/mL

Question: What about the solubility ([2]; pH 6.8, aqueous with cosolvent or surfactant or cyclodextrin, thermodynamic from solid, Solubility, pH 6.8 (50 mM NaH2PO4) w/0.5% Tween 80) of the same compound?
Answer: 20 µg/mL

Question: And the solubility ([2]; pH 6.8, aqueous with cosolvent or surfactant or cyclodextrin, thermodynamic from solid, Solubility, pH 6.8 (50 mM NaH2PO4) w/1% CTAB)?
Answer: 110 µg/mL

Question: And the solubility ([2]; pH 6.8, aqueous with cosolvent or surfactant or cyclodextrin, thermodynamic from solid, Solubility, pH 6.8 (50 mM NaH2PO4) w/1% SLS)?
Answer: 70 µg/mL

Question: And the solubility ([2]; pH 6.8, aqueous with cosolvent or surfactant or cyclodextrin, thermodynamic from solid, Solubility, pH 6.8 (50 mM NaH2PO4) w/1% Tween 80)?
Answer: 20 µg/mL

Question: And the “Cmax GB” value ([3]; 10 mgA/mL suspension in 1 wt. % 1:1 methyl-cellulose:Tween 80 held 4 hours)?
Answer: 18.3 μgA/mL

Question: And the “Cmax GB” value ([3]; 10 mgA/mL suspension in 1 wt. % 1:1 methyl-cellulose:Tween 80 held 24 hours)?
Answer: 35.8 μgA/mL

Question: What about the “AUC Enhancement” value ([3]; suspension held 4 hours) of the same compound?
Answer: 1.0

Question: What about the “AUC FaSSIF” value ([3]; suspension held 4 hours) of the same compound?
Answer: 2600 μgA/mL*min

Question: What about the “Cmax FaSSIF” value ([3]; suspension held 4 hours) of the same compound?
Answer: 15.5 μgA/mL

Question: What about the “AUC Enhancement” value ([3]; suspension held 24 hours) of the same compound?
Answer: 1.0

Question: And the “AUC FaSSIF” value ([3]; suspension held 24 hours)?
Answer: 5600 μgA/mL*min

Question: What about the “Cmax FaSSIF” value ([3]; suspension held 24 hours) of the same compound?
Answer: 33.0 μgA/mL

Question: What about the solubility ([4]; 87.5/12.5% Acetone/H2O) of the same compound?
Answer: 5.8 wt. %

Question: And the solubility ([4]; 90/10% Acetone/H2O)?
Answer: 7.1 wt. %

Question: And the solubility ([4]; 92.5/7.5% Acetone/H2O)?
Answer: 6.7 wt. %

Question: And the solubility ([4]; 95/5% Acetone/H2O)?
Answer: 7.5 wt. %

Question: What about the solubility ([4]; 97.5/2.5% Acetone/H2O) of the same compound?
Answer: 7.3 wt. %

Question: And the solubility ([4]; 100% Acetone)?
Answer: 6.2 wt. %

Question: What about the “AUC Enhancement” value ([5]; Example 2, AUC solid dispersion/AUC crystalline compound of Formula (I)) of the same compound?
Answer: 1

Question: And the “Cmax GB” value ([5]; Example 2, SGF, 30 minutes)?
Answer: 12 μgA/mL

Question: What about the “Cmax FaSSIF” value ([5]; Example 2, after transfer to FaSSIF) of the same compound?
Answer: 16 μgA/mL

Question: What about the “AUC FaSSIF” value ([5]; Example 2, post gastric transfer) of the same compound?
Answer: 2600 μgA/mL*min

Question: And the “Cmax GB” value ([5]; Example 6, capsules, 5 wt. % compound in lipid vehicle)?
Answer: 14 μgA/mL

Question: And the “AUC FaSSIF” value [5, 17]?
Answer: 3021 μgA/mL*min

Question: What about the “Cmax FaSSIF” value [5, 17] of the same compound?
Answer: 19 μgA/mL

Question: And the “AUC Enhancement” value ([5]; Example 6, versus bulk crystalline drug)?
Answer: 1.0

Question: And the EC50 [6]?
Answer: < 50 nM

Question: And the solubility ([7]; 95/5% Acetone/H2O)?
Answer: 6.6 wt. %

Question: And the solubility ([7]; 96/4% Acetone/H2O)?
Answer: 6.3 wt. %

Question: And the solubility ([7]; 97/3% Acetone/H2O)?
Answer: 6.7 wt. %

Question: What about the solubility ([7]; 98/2% Acetone/H2O) of the same compound?
Answer: 6.6 wt. %

Question: And the solubility ([7]; 99/1% Acetone/H2O)?
Answer: 6.0 wt. %

Question: And the solubility ([7]; 100% Acetone)?
Answer: 6.0 wt. %

Question: What about the EC50 [8] of the same compound?
Answer: < 50 nM
